According to patent US10085442B2, “Agrochemical formulation” (SYNGENTA PARTICIPATIONS AG, priority 2014, dated 2018):

Assay: Rainfastness of cyantraniliprole on soya leaf (Example 10)
Assay type: physicochemical, Glycine Max (Williams variety)
Conditions: rain 10 mm/hour for one hour, 0.5 g of water replaced by copolymer
Method: A range of substrates can be used in this test with the chosen material in this example being a soya leaf. Herein the soya, Glycine Max (Williams variety), was grown for 4 weeks in 4 inch pots with the top 2 tri-foliates used in the study. The leaves were mounted using double sided tape to flat tiles (30 cm by 30 cm) at an even spacing of 6 leaves per tile.
A deposition solution was then prepared at the concentration which would be used under commercial application conditions. In this case 0.12 g of cyantraniliprole technical was added to […] water for the control and the effect of the styrene malemide co-polymer determined by creating a similar sample with 0.5 g of the water replaced by styrene malemide co-polymer. […]
The quantities of cyantraniliprole in the acetonitrile solutions determined by mass spectrometry using a Waters Acquity UPLC and Thermo TSQ Quantum Ultra Triple Quadrupole MS Instrument or just LC/MS/MS. • Column: • Phase Ace C18 • Length (mm) 50 • Internal diameter (mm) 3.0 • Particle Size (μm) 3 • and the % active ingredient remaining after rainfall determined by dividing the quantity of cyantraniliprole on each leaf after rainfall by that before rainfall. • Cyantraniliprole: 2% cyantraniliprole remained on the leaves. • Cyantraniliprole+styrene malemide copolymer: 45% cyantraniliprole remained on the leaves.

## CNC(=O)c1cc(C#N)cc(C)c1NC(=O)c1cc(Br)nn1-c1ncccc1Cl [Cyantraniliprole, cyantraniliprole]
  % cyantraniliprole remained on the leaves after rainfall: 2%
